Measured values published in patent publication US7057059B2, “Tumor-inhibiting platinum (II) oxalate complexes” (Faustus Forschungs CIE. Translational Cancer Research GmbH, priority 2002, dated 2006).

Columns and labels:
[1] = tested on: 41M (adenocarcinoma of the ovary); type: cell-based; conditions: cell line 41M, MTT, 96 h
Protocol: (§1) The cytotoxicity of the compounds according to Examples 1 and 2 was tested by using the following cell lines 41M, CH1 and SW480. In this respect the following method was selected:
(§2) In this regard, adherent monolayer cultures of the following cell lines were used: 41M (adenocarcinoma of the ovary), CH1 (adenocarcinoma of the ovary), SW480 (adenocarcinoma of the colon; primary resistance to cisplatinum).
(§3) Culture conditions: The cells were kept in 75 cm^2 culture flasks at 37° C. and moist atmosphere (5% CO2). Minimal Essential Medium (MEM) was used as culture medium, with 2 mmol/l I-glutamine, 1 mmol/l sodium pyruvate, 50 IU/ml penicillin, 50 μg/ml streptomycin and 10% heat-inactivated foetal bovine serum.
(§4) Test execution: Cell suspensions were obtained from subconfluent cultures by treatment with trypsin and seeded in defined density in 96-well microculture plates. The initial density was selected such that for the complete test duration an exponential growth of the cultures was guaranteed. For the cell line 41M this was 4·10^4 cells/ml, for CH1 1.25·10^4 cells/ml and for SW480 1.5·10^4 cells/ml. The plates were incubated for 24 h under standard conditions to achieve cell establishment. Then the compounds to be tested were introduced in ten-staged concentration series in the culture medium (without addition of organic solvents or dissolving agents) into the plates and left for the complete test duration (96 h). Per experiment each concentration was tested on eight microcultures of the same cell line. At the end of the experiment the respective number of living cells in the microculture was determined spectrophotometrically (at 550 nm) using the MTT-dye reaction in relationship to the untreated control cultures. Equally, the number of living cells in microculture plates started in parallel was quantified at the start of the active substance exposition. […] The mean values were used for the evaluation.

[2] = tested on: CH1 (adenocarcinoma of the ovary); type: cell-based; conditions: cell line CH1, MTT, 96 h
Protocol: as §1, §2, §3, §4

[3] = tested on: SW480 (adenocarcinoma of the colon; primary resistance to cisplatinum); type: cell-based; conditions: cell line SW480, MTT, 96 h
Protocol: as §1, §2, §3, §4

[4] = tested on: Female, tumor-bearing B6D2F1 mouse; assay: In vivo efficacy study: survivors on day 14 after tumor transplantation; conditions: for Survivors/total number: Qd×5, day 14 after tumor transplantation; for animals still alive on day 14: highest dosage level
From the text: Female, tumor-bearing B6D2F1 mouse, day 14 after tumor transplantation.

leukaemia L1210 = assay: L1210 leukaemia in the mouse; type: in vivo; conditions: for effectiveness (survival to the end of the experiment): 3 mg/kg and 6 mg/kg, 21 day study
From the text: FIG. 4 is a bar graph of the results of the effectiveness of (4-methyl-trans-chxn)Pt(ox) in comparison to I-OHP in leukaemia L1210 in the mouse at various dosages over a 21 day study.

animals free of tumors = assay: MTD study on animals free of tumors; conditions: on day 5, at MTD 10 mg/kg Qd×5
[5] = MTD study on animals free of tumors; conditions: in vivo

Molecule | GL50 [1] [µM] | IC50 [1] [nM] | TGI [1] [nM] | Gl50 [2] [µM] | IC50 [2] [nM] | TGI [2] [nM] | Gl50 [3] [µM] | IC50 [3] [nM] | TGI [3] [nM] | animals still alive on day 14 [4] | effectiveness (survival to the end of the experiment) (leukaemia L1210) | weight loss (animals free of tumors) [%] | MTD at 5 days [5] [mg/kg] | other results
(SP-4-3)-(4-methyl-trans-cyclohexane-1,2-diamine)oxalatoplatinum (II) [[(4-methyl-trans-chxn)Pt(ox)]] | 0.91 ± 0.16 | 2400 | 4200 ± 2600 | 0.22 | 340 | 930 | 0.31 | 650 | 9000 | 4/6 | all animals survived the experiment to the end | 5 | – | Survivors/total number ([4]; dose 1.30 mg/kg): 6/6; Survivors/total number ([4]; dose 2.60 mg/kg): 5/6; Survivors/total number ([4]; dose 5.20 mg/kg): 4/6; tolerance at high dosage (leukaemia L1210; 24 mg/kg, in comparison to I-OHP): better tolerance
O=C(O)C(=O)O.[NH-][C@@H]1CCCC[C@H]1[NH-].[Pt+2] [[(trans-chxn)Pt(ox)]] | 0.99 | 4200 | 5000 | 0.54 | 700 | 2000 | 0.8 | 1600 | 21800 | – | – | – | – | –
CCC1CCC2[NH][Pt]3([NH]C2C1)[O]C(=O)C(=O)[O]3 (stereo not drawn) [[(4-ethyl-trans-chxn)Pt(ox)], (SP-4-3)-(4-ethyl-trans-cyclohexane-1,2-diamine)oxalatoplatinum (II)] | – | – | – | – | – | – | – | – | – | 6/6 | – | 5 | 10 | Survivors/total number ([4]; dose 1.34 mg/kg): 5/6; Survivors/total number ([4]; dose 2.68 mg/kg): 6/6; Survivors/total number ([4]; dose 5.35 mg/kg): 6/6
O=C(O)C(=O)O.[NH-]C1CCCCC1[NH-].[Pt+2] (stereo not drawn) [[(trans-S,S-chxn)Pt(ox)]] | 1.11 | 3200 | 4400 | 1.14 | 1500 | 4200 | 2.2 | 4200 | 47800 | – | – | – | – | –
O=C1[O][Pt]2([NH]C3CCCC[C@H]3[NH]2)[O]C1=O (stereo partly shown) [Oxaliplatinum, oxaliplatinum] | – | – | – | – | – | – | – | – | – | death of all animals | deaths already occurred | – | 5 | Survivors/total number ([4]; dose 1.25 mg/kg): 5/6; Survivors/total number ([4]; dose 2.50 mg/kg): 6/6; Survivors/total number ([4]; dose 5.00 mg/kg): 0/6
